Results on 1 molecule are retold here after article PMC5576976 (Translational Oncology, 2017).

As usually defined, the IC50 is the concentration needed to halve the response being measured. A low value points to higher potency.

The target in the assay is IMP1 (insulin-like growth factor-2 mRNA-binding protein 1) (Homo sapiens, UniProt Q9NZI8). Kind of assay: fluorescence anisotropy/polarization microplate assay.

Structures are written as SMILES.

Chain of IMP1 (insulin-like growth factor-2 mRNA-binding protein 1) (Q9NZI8 whole entry): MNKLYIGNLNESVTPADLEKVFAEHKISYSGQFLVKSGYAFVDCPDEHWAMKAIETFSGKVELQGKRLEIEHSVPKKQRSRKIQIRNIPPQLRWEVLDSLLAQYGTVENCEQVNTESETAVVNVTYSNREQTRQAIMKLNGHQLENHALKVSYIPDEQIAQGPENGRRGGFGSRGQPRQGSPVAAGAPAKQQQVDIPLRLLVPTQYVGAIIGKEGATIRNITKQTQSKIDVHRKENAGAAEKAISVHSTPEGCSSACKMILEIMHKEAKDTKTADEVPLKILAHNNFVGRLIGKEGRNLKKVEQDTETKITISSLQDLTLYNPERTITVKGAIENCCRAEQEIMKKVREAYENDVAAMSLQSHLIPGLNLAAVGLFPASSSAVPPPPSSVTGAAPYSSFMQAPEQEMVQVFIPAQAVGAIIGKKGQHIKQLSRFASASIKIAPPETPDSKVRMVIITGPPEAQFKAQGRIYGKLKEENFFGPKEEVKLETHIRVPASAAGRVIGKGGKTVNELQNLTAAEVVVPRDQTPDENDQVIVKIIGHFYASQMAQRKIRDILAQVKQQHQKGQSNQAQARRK

For the molecule `NC(=O)c1ccccc1N=Cc1ccc(Br)s1` [BTYNB, 2-{[(5-bromo-2-thienyl)methylene]amino}benzamide], the IC50 was found to be 5 µM.
